Results: patent EP0973746B1, “SUBSTITUTED 3-CYANO QUINOLINES” (Wyeth Holdings Corporation, priority 1997, dated 1998)
Values after ≈ are worked out from the molar mass of the structure shown. Values joined by “and” are separate entries in the source; they are usually repeats but may differ in a detail not shown here. Equal entries are not always repeated. Where two headings read alike, the source gives them in different places. Each block holds one compound with its values, some of them ahead of it.

Assays:
[1] = test system: SKBR3; experiment: Inhibition of cancer cell growth as measured by cell number, SKBR3; type: cell-based, human; conditions: Table 8; for IC50: Homo sapiens;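 on all read-outs here: SK-BR-3 cells were selected as a line overexpressing HER2/neu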
Excerpt: (§1) The cell lines were chosen since they overexpressed epidermal growth factor receptor (EGFR) (i.e. A431) or HER2/neu (SKBR3), or had little to no expression of the these receptors (SW620, LOX, MCF7).

[2] = test system: SW620; experiment: Inhibition of cancer cell growth as measured by cell number, SW620; type: cell-based, human; conditions: Table 8; for IC50: Homo sapiens, SW-620, 48 h;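 on all read-outs here: SW620 was included as a cell line with little or no EGFR or HER2/neu expression, in contrast to receptor-overexpressing lines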
Excerpt: as §1

[3] = biological target: recombinant human MEK 1 (MAPKK) and recombinant human ERK2 (MAPK); experiment: Mitogen Activated Protein Kinase (MAPK) assay, two component coupled MEK 1 / ERK2; type: biochemical; conditions: separate entries for the same compound = evaluated more than one time;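 further: MEK 1-activated ERK2 phosphorylates MBP or Myc peptide with 33P-ATP, filter capture and scintillation counting, inhibitor preincubated with ERK2 30 min at 0 °C, inhibition relative to uninhibited control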
[4] = test system: A431; experiment: Inhibition of cancer cell growth as measured by cell number, A431; type: cell-based, human; conditions: Homo sapiens, A-431, 48 h, Table 8;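 further: human A431 line, picked because it overexpresses epidermal growth factor receptor (EGFR)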
Excerpt: as §1

[5] = biological target: T1, His-tagged cytoplasmic domain of EGFR (Homo sapiens, UniProt P00533); experiment: Inhibition of Epidermal Growth Factor Receptor Kinase (EGF-R) using recombinant enzyme; type: biochemical; conditions: recombinant enzyme; RR-SRC peptide; average of the number of tests; read-out: IC50;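 further: radiometric kinase assay measuring radiolabeled phosphate transfer from ATP onto the peptide tyrosine by scintillation counting, control is reaction without compound, background subtracted, IC50 from dose-response curve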
T1 construct: containing the EGFR cDNA encoding amino acids 645 - 1186 preceded by Met-Ala-(His)6; made in house; host or cells: Sf9 cells, recombinant baculovirus vHcEGFR52

[6] = test system: human epidermoid tumors (A431); experiment: In vivo inhibition of the growth of human epidermoid tumors (A431); conditions: Table 11; for S/T = No. Survivors/No. Treated: Day +28 post tumor staging
Protocol: Representative compounds of this invention (listed below) were evaluated in an in vivo standard pharmacological test procedure which measured its ability to inhibit the growth of human epidermoid tumors. […] BALB/c nu/nu female mice (Charles River, Wilmington, MA) were used in this in vivo standard pharmacological test procedure. A unit of 5 X 10^6 cells were injected SC into mice. When tumors attained a mass of between 100 and 150 mg, the mice were randomized into treatment groups (day zero). […] Control animals received no drug. Tumor mass was determined every 7 days [(length X width^2)/2] for 28 days post staging. Relative tumor growth (Mean tumor mass on days 7, 14, 21, and 28 divided by the mean tumor mass on day zero) is determined for each treatment group.

[7] = SK-BR-3, cell number, Sulforhodamine B, 48 hours exposure, read-out: IC50 SKBR3
[8] = cell number, Sulforhodamine B, 48 hours exposure, read-out: IC50 SW620
[9] = cell number, Sulforhodamine B, 48 hours exposure, read-out: IC50 A431
[10] = cell number, Sulforhodamine B, 48 hours exposure
[11] = SK-BR-3, 48 h, read-out: IC50 SKBR3, cell number, Sulforhodamine B, 48 hours exposure
[12] = read-out: IC50 SW620, cell number, Sulforhodamine B, 48 hours exposure
[13] = 80 mg/kg/dose IP on days 1,5 and 9
[14] = 80 mg/kg/dose PO on days 1 through 10

T1 sequence (P00533 669-1210): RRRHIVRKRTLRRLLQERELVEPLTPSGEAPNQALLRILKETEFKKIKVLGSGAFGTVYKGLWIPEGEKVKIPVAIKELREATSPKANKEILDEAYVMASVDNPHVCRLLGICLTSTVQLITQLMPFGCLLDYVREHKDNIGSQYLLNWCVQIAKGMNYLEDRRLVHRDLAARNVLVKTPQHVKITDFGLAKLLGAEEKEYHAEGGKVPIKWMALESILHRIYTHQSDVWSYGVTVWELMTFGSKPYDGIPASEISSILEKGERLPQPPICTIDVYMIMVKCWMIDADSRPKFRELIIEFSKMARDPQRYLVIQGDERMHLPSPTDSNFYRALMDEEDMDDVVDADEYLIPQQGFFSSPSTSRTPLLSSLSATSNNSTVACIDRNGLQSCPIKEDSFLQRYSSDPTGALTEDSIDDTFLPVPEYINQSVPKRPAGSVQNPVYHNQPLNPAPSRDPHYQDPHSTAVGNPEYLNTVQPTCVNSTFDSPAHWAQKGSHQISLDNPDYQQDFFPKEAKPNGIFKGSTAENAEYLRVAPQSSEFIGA

Compound: CCOc1cc2ncc(C#N)c(NCc3ccccc3)c2cc1OCC [Example 62, 4-(3-Phenylmethylamino)-6,7-diethoxy-3-quinolinecarbonitrile]
IC50 SKBR3 [1, 10]: 0.3 µg/mL (≈ 0.864 µM) | IC50 SW620 [2, 10]: 0.3 µg/mL (≈ 0.864 µM)

Compound: C=CC(=O)Nc1ccc2ncc(C#N)c(Nc3cccc(F)c3)c2c1 [Example 88, N-[3-Cyano-4-(3-fluorophenylamino)quinolin-6-yl]acrylamide]
IC50 [5]: 80 nM

Compound: C=CC(=O)Nc1cc(CN(C)C)c2ncc(C#N)c(Nc3cccc(Br)c3)c2c1 [Example 111, N-{4-[(3-Bromophenyl)amino]-3-cyano-8-dimethylaminomethyl-6-quinolinyl}-2-propenamide]
IC50 [1, 7]: 3.32 µg/mL (≈ 7.38 µM) | IC50 [2, 8]: 2.02 µg/mL (≈ 4.48 µM) | IC50 [4, 9]: 3.05 µg/mL (≈ 6.76 µM)

Compound: CC(=O)Nc1cc(CN(C)C)c2ncc(C#N)c(Nc3cccc(Br)c3)c2c1 [Example 112, N-{4-[(3-Bromophenyl)amino]-3-cyano-8-dimethylaminomethyl-6-quinolinyl} acetamide]
IC50 [1, 11]: > 5 µg/mL | IC50 [2, 12]: > 5 µg/mL | IC50 [3]: > 100 µM | IC50 ([4]; read-out: IC50 A431, cell number, Sulforhodamine B, 48 hours exposure): > 5 µg/mL

Compound: N#Cc1cnc2ccc(N)cc2c1Nc1cccc(I)c1 [Example 130, 6-Amino-4-[(3-iodophenyl)amino]-3-quinolinecarbonitrile]
IC50 [3]: > 100 µM | IC50 [5]: 100 nM

Compound: CC#CC(=O)Nc1ccc2ncc(C#N)c(Nc3cccc(C)c3)c2c1 [Example 132, N-{3-Cyano-4-[(3-methylphenyl)amino]-6-quinolinyl}-2-butynamide]
IC50 [3]: > 100 µM | IC50 [5]: 600 nM

Compound: C=C(CN1CCOCC1)C(=O)Nc1ccc2ncc(C#N)c(Nc3ccc(F)c(Cl)c3)c2c1 [Example 148, N-{4-[(3-chloro-4-fluorophenyl)amino]-3-cyano-6-quinolinyl}-2-morpholin-4-ylmethyl-2-propenamide]
IC50 [1, 11]: 0.043 µg/mL (≈ 0.0923 µM) | IC50 [2, 12]: 0.26 µg/mL (≈ 0.558 µM)

Compound: C=C(CN1CCOCC1)C(=O)Nc1ccc2ncc(C#N)c(Nc3cccc(Br)c3)c2c1 [Example 171, N-{4-[(3-Bromophenyl)amino]-3-cyano-6-quinolinyl}-2-morpholin-4-ylmethyl-2-propenamide]
IC50 [5]: 6.5 nM

Compound: CCOc1cc2ncc(C#N)c(Nc3cccc(Br)c3)c2cc1NC(=O)C=CCN(C)C [Example 216, 4-Dimethylamino-but-2-enoic acid [4-(3-bromo-phenylamino)-3-cyano-7-ethoxy-quinolin-6-yl]-amide]
IC50 [1, 11]: 0.012 µg/mL (≈ 0.0243 µM) | IC50 SKBR3 [1, 10]: 0.015 µg/mL (≈ 0.0303 µM) | %T/C Day 7 [6, 13]: 14% | %T/C Day 14 [6, 13]: 12% | %T/C Day 21 [6, 13]: 17% | %T/C Day 28 [6, 13]: 19% | S/T = No. Survivors/No. Treated [6, 13]: 5/5 | %T/C Day 7 [6, 14]: 6% | %T/C Day 14 [6, 14]: 6% | %T/C Day 21 [6, 14]: 12% | %T/C Day 28 [6, 14]: 21% | S/T = No. Survivors/No. Treated [6, 14]: 5/5

Compound: COc1cc(NC(=O)C=CCN(C)C)cc2c(Nc3cccc(Br)c3)c(C#N)cnc12 [Example 224]
IC50 [5]: 1000 nM

Compound: N#Cc1cnc2ccc(NC(=O)/C=C\Cl)cc2c1Nc1cccc(Br)c1 [Example 327, N-[4-(3-Bromo-phenylamino)-3-cyano-quinolin-6-yl]-3-chloro-(Z)-acrylamide]
IC50 [5]: 10 nM

Compound: N#Cc1cnc2ccc([N+](=O)[O-])cc2c1Nc1ccc(Br)c(Br)c1 [Example 377, 4-(3,4-Dibromophenylamino)-6-nitroquinoline-3-carbonitrile]
IC50 [3]: > 100 µM

Compound: CCC(=O)Nc1ccc2ncc(C#N)c(Nc3cccc(Br)c3)c2c1 [Example 381, N-[4-(3-Bromophenylamino)-3-cyanoquinolin-6-yl]propionamide]
IC50 [3]: > 100 µM

Compound: C/C=C/C(=O)Nc1ccc2ncc(C#N)c(Nc3cccc(Br)c3)c2c1 [Example 382, (E)-But-2-enoic Acid [4-(3-Bromophenylamino)-3-cyanoquinolin-6-yl]amide]
IC50 [3]: > 100 µM

Compound: CN(C)c1cccc(Nc2c(C#N)cnc3ccc([N+](=O)[O-])cc23)c1 [Example 386, 4-(3-Dimethylaminophenylamino)-6-nitroquinoline-3-carbonitrile]
IC50 [3]: > 100 µM

Compound: CN(C)c1ccc(Nc2c(C#N)cnc3ccc([N+](=O)[O-])cc23)cc1 [Example 387, 4-(4-Dimethylaminophenylamino)-6-nitroquinoline-3-carbonitrile]
IC50 [3]: > 100 µM

Compound: CC#CC(=O)Nc1ccc2ncc(C#N)c(Nc3cccc(F)c3)c2c1 [Example 390, But-2-ynoic Acid [4-(3-Fluorophenylamino)-3-cyanoquinolin-6-yl]amide]
IC50 [3]: > 100 µM

Compound: CC#CC(=O)Nc1ccc2ncc(C#N)c(Nc3ccc(N(C)C)cc3)c2c1 [Example 394, But-2-ynoic Acid [3-Cyano-4-(4-dimethylaminophenylamino)quinolin-6-yl]amide]
IC50 [3]: > 100 µM

Second part, the compound after the results:

IC50 [1, 7]: 1.09 µg/mL (≈ 2.57 µM) | IC50 [2, 8]: 1.07 µg/mL (≈ 2.5 µM) | IC50 [3]: > 100 µM | IC50 [4, 9]: 0.341 µg/mL (≈ 0.8 µM)
Compound: CCOc1cc2ncc(C#N)c(NCc3cccc(Br)c3)c2cc1OCC [Example 61, 4-(3-Bromophenylmethylamino)-6,7-diethoxy-3-quinolinecarbonitrile]

IC50 SKBR3 [1, 10]: 1.965 µg/mL (≈ 4.72 µM) | IC50 SW620 [2, 10]: 1.603 µg/mL (≈ 3.85 µM) | IC50 [3]: 3 µM
Compound: CCOc1cc2ncc(C#N)c(NCc3ccc(Cl)c(Cl)c3)c2cc1OCC [Example 64, 4-(3.4-Dichlorophenylmethylamino)-6,7-diethoxy-3-quinolinecarbonitrile]

IC50 [5]: 10 nM
Compound: C=CC(=O)Nc1ccc2ncc(C#N)c(Nc3cccc(Cl)c3)c2c1 [Example 135, N-4-[(3-Chlorophenyl)amino]-3-cyano-6-guinolinyl-2-propenarnide]

IC50 [5]: 100 nM
Compound: N#Cc1cnc2ccc(N)cc2c1Nc1ccc(Br)cc1 [Example 152, 6-Amino-4-[(4-bromophenyl)amino]-3-quinolinecarbonitrile]

IC50 [5]: 100 nM
Compound: CCOc1cc2ncc(C#N)c(Nc3ccc(F)c(Cl)c3)c2cc1OCC [Example 256, 4-(3-Chloro-4-fluorophenylamino)-6,7-diethoxy-3-quinolinecarbonitrile]

IC50 [5]: 500 nM
Compound: COc1cc2ncc(C#N)c(Nc3ccc(Cl)cc3F)c2cc1N [Example 360, 6-Amino-4[(4-Chloro-2-fluorophenyl)amino]-7-methoxy-3-quinolinecarbonitrile]

IC50 [3]: < 1 µM and 2 µM
Compound: COc1cc2ncc(C#N)c(Nc3cccc(O)c3C)c2cc1OC [Example 374, 4-(3-Hydroxy-2-methyl-phenylamino)-6,7-dimethoxy-quinoline-3-carbonitrile]

IC50 [3]: 40 µM
Compound: N#Cc1cnc2ccc(N)cc2c1Nc1ccc(Br)c(Br)c1 [Example 379, 6-Amino-4-(3,4-dibromophenylamino)quinoline-3-carbonitrile]

IC50 [3]: > 100 µM
Compound: N#Cc1cnc2ccc([N+](=O)[O-])cc2c1Nc1cccc(F)c1 [Example 384, 4-(3-Fluorophenylamino)-6-nitroquinoline-3-carbonitrile]

IC50 [3]: 90 µM
Compound: N#Cc1cnc2ccc(N)cc2c1Nc1cccc(F)c1 [Example 385, 6-Amino-4-(3-fluorophenylamino)quinoline-3-carbonitrile]

IC50 [3]: 25 µM and 50 µM
Compound: CN(C)c1cccc(Nc2c(C#N)cnc3ccc(N)cc23)c1 [Example 388, 6-Amino-4-(3-dimethylaminophenylamino)quinoline-3-carbonitrile]

IC50 [3]: > 100 µM
Compound: CN(C)c1ccc(Nc2c(C#N)cnc3ccc(N)cc23)cc1 [Example 389, 6-Amino-4-(4-dimethylaminophenylamino)quinoline-3-carbonitrile]

IC50 [1, 7]: 0.2 µg/mL | IC50 [2, 8]: 2.7 µg/mL | IC50 [3]: 50 µM | IC50 [4, 9]: 0.3 µg/mL
Compound: COc1cccc(Nc2c(C#N)cnc3ccc(N(C)C)cc23)c1.Cl [Example 396, 6-Dimethylamino-4-(3-methoxyphenylamino)quinoline-3-carbonitrile Hydrochloride]
